Where two headings read alike, the source gives them in different places. Each block holds one molecule with its values, some of them ahead of it.
Tests used:
[1] = in vivo; cited from earlier work
[2] = cited from earlier work
type 1 diabetes = conditions: cited from earlier work
[3] = test system: TNFR1-mediated activation of NF-κB; conditions: high concentrations; cited from earlier work
P2X7 = biological target: T1, P2X7 (Homo sapiens, UniProt Q99572); conditions: read-out: EC50 for activation of P2X7; cited from earlier work
T1 sequence (Q99572 1-595): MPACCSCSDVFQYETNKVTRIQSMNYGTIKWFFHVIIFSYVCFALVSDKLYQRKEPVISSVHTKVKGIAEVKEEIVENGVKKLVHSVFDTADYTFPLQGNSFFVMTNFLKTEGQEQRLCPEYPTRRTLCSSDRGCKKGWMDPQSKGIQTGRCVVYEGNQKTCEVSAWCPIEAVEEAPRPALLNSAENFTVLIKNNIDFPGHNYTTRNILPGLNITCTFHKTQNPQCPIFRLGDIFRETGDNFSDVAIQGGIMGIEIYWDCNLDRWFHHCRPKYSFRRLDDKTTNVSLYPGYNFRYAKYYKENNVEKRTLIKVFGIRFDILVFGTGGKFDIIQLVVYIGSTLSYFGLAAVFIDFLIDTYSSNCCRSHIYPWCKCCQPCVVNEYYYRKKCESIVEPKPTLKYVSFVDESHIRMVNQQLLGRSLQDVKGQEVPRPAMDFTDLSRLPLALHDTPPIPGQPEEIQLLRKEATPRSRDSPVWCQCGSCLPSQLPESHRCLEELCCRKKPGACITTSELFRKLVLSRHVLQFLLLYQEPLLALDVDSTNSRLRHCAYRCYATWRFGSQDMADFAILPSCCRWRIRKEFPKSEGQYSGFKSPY

phagocytes = conditions: cited from earlier work; for maximal migration of phagocytes (increase): at about 100 nM; for concentration effecting maximal migration of phagocytes: transwell migration assay
P2Y2 = P2Y2 (Homo sapiens, UniProt P41231); conditions: read-out: EC50 for activation of P2Y2; cited from earlier work
Chain of P2Y2 (P41231 whole entry, species assumed): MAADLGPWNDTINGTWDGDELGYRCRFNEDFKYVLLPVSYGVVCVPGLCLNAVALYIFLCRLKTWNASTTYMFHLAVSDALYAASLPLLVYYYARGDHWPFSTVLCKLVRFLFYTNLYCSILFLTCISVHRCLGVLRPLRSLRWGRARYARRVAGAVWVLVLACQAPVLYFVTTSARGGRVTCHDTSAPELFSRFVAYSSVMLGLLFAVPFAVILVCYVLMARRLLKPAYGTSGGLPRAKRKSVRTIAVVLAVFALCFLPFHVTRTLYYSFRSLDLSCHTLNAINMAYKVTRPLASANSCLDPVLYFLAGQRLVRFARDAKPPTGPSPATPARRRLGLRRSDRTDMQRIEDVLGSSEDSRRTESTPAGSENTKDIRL

[4] = In vitro release of ATP from PLGA-PEG-PLGA hydrogels; assay type: physicochemical
Experimental: An aliquot of 20 μl of a 10 mM solution of ATP is combined with 160 μl of 25% gel solution of Example 4.1 and 20 μl of 10×PBS (final concentration of ATP is 1 mM). The mixture is incubated for 2 minutes at 37° C. to induce gelling and overlayed with 1 ml of 1×PBS. At frequent timepoints the supernatant is removed by pipetting and stored at 4° C. The removed supernatant is replaced by fresh 1 ml of 1×PBS. After 48 hours the samples are measured spectrometrically at 260 nm and the amount of released ATP is calculated as percentage of a reference sample containing a concentration of ATP equaling 100% release.

[5] = test system: human polymorphonuclear leukocyte (PMN) trans-endothelial migration; conditions: equipotent to resolvin D1; read-out: EC50 of reduction of PMN trans-endothelial migration; cited from earlier work
leukocyte infiltration = conditions: 100 ng dose; cited from earlier work
[6] = rodents; cited from earlier work
[7] = cited from earlier work; remark: listed apart in the source
[8] = Release of DexP from PLGA-PEG-PLGA hydrogels; assay type: physicochemical
Experimental: The biodegradable PLGA-PEG-PLGA triblock polymer used in this example has a PLG/PEG weight ratio of 2.3 (70/30), and a lactide/glycolide molar ratio of approx. 15/1. Synthesis of the triblock copolymer is performed as described in Example 2.1. A 20 mM stock solution of DexP in PBS (10.3 mg/ml; MW 516.4; Sigma-Aldrich) is diluted 1:40 in PBS (final concentration: 0.5 mM), and 20 μl of the diluted stock solution is combined with 160 μl of 25% gel solution and 20 μl of 10×PBS (final concentration of DexP: 0.05 mM).
The mixture of 5.2.1 is incubated for 2 minutes at 37° C. to induce gelling and overlayed with 200 μl of 1×PBS. At frequent time points the supernatant is removed by pipetting and stored at 4° C. The removed supernatant is replaced by fresh 200 μl of 1×PBS. Controls of the same concentration of DexP in 1×PBS without gel are incubated and sampled in parallel.
Released DexP is determined with a spectrophotometric method (Singh and Verma, 2008). The method involves oxidation of the corticosteroid by iron (III) and subsequent complexation of iron (II) with potassium hexacynoferate (III), forming a bluish green coloured complex with maximum absorbance at 780 nm (Beer's law range: 10-50 μg/ml; molar absorptivity (M^−1cm^−1): for DexP 0.55×10^4).

[9] = cited from earlier work; remark: listed apart in the source
murine CD22 = biological target: T2, murine CD22 (Mus musculus, UniProt P35329); conditions: cited from earlier work
T2 sequence (P35329 22-868): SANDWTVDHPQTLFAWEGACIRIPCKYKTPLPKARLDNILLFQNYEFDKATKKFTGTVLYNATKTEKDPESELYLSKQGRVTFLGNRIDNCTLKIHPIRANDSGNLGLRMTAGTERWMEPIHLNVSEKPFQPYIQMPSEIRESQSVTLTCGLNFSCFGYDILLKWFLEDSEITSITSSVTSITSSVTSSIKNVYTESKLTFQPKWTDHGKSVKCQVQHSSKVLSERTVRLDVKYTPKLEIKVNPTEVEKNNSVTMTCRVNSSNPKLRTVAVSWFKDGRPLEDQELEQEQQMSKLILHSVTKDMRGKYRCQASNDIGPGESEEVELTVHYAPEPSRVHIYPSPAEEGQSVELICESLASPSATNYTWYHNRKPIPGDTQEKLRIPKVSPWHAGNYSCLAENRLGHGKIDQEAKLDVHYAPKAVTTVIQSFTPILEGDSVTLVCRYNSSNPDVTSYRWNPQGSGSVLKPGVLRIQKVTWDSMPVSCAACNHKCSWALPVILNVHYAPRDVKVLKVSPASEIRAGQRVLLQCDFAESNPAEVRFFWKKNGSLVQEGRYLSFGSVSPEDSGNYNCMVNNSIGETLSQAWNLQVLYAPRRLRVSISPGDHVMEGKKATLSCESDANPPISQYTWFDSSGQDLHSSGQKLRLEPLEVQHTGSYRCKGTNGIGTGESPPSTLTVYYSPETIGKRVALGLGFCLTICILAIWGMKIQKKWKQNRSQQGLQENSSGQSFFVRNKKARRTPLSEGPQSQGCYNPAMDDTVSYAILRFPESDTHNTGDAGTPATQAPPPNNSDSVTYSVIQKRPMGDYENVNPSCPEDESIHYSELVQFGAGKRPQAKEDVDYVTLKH

[10] = cited from earlier work; remark: listed apart in the source
[11] = cited from earlier work; remark: listed apart in the source
calcium metabolism = conditions: compared to 1,25-(OH)2D3; cited from earlier work
[12] = rats; cited from earlier work
rheumatoid arthritis = conditions: 2 μg/day for 3 months, cited from earlier work

Molecule: C[C@]12CCC(=O)C=C1CC[C@@H]1[C@@H]2C(=O)C[C@@]2(C)[C@H]1CC[C@]2(O)C(=O)CO [cortisone]
glucocorticoid potency (in words) [1]: rather low potency

Molecule: C[C@]12C=CC(=O)C=C1CC[C@H]1[C@@H]3C[C@@H](O)[C@](O)(C(=O)CO)[C@@]3(C)C[C@H](O)[C@@]12F [triamcinolone]
glucocorticoid potency (in words) [1]: intermediate potency

Molecule: C[C@@H]1C[C@H]2[C@@H]3CCC4=CC(=O)C=C[C@]4(C)[C@@]3(F)[C@@H](O)C[C@]2(C)[C@@]1(O)C(=O)CO [dexamethasone]
plasma concentration of Dex ([2]; after 6 weeks (day 42)): 1 nM | plasma concentration of Dex ([2]; around day 7 after i.v. 200 mg/day on three alternating days): 100 to 1000 nM

Molecule: vitamin D
relative risk of type 1 diabetes (type 1 diabetes; doses of exactly 50 μg/day): 0.22 | relative risk of type 1 diabetes (type 1 diabetes; doses of over 50 μg/day (2000 IU/d) during infancy, subsequent 30 years): 0.14 | odds ratio of risk for T1D by age 15 (type 1 diabetes; supplemented vs unsupplemented children): 0.67

Molecule: O=C([O-])c1ccccc1O.[Na+] [sodium salicylate]
concentration inhibiting TNFR1-mediated activation of NF-κB [3]: 10 to 20 mM

Molecule: C[C@]12CCC(=O)C=C1CC[C@@H]1[C@@H]2[C@@H](O)C[C@@]2(C)[C@H]1CC[C@]2(O)C(=O)CO [hydrocortisone]
glucocorticoid potency (in words) [1]: rather low potency

hydrogel-embedded ATP released ([4]; after 48 hours): approx. 75% | further hydrogel-embedded ATP released ([4]; another, within the next 20 hours): 10% | hydrogel-embedded ATP released ([4]; within the first 5 hours (initial burst)): approx. 50%
Molecule: Nc1ncnc2c1ncn2[C@@H]1O[C@H](COP(=O)(O)OP(=O)(O)OP(=O)(O)O)[C@@H](O)[C@H]1O [ATP]
EC50 (P2X7): > 100 µM | maximal migration of phagocytes (increase) (phagocytes): threefold increase | concentration effecting maximal migration of phagocytes (phagocytes): about 100 nM | EC50 (P2Y2): < 1000 nM

Molecule: CC/C=C\C[C@@H](O)/C=C/C=C\C=C\C=C\[C@@H](O)[C@@H](O)C/C=C\CCC(=O)O [17(R)-Resolvin D1]
EC50 [5]: ~30 nM | maximal inhibition of leukocyte infiltration (leukocyte infiltration): ~35%

Molecule: C=C1CC[C@H](O)C/C1=C/C=C1\CCC[C@]2(C)[C@@H]([C@H](C)CCCC(C)(C)O)CC[C@@H]12 [calcidiol, 25-hydroxyvitamin D3]
plasma calcidiol concentration tolerated with normocalcemia [6]: 250 to 1000 nM | plasma calcidiol concentration producing vitamin D toxicity ([7]; Jones (2008)): above 0.75 μM | calcidiol level at which toxicity occurs ([7]; Shephard and DeLuca (1980)): ≥ 500 ng/mL

hydrogel-embedded DexP released ([8]; after 2 days): 80-90% | hydrogel-embedded DexP released ([8]; within the first 6 hours): 30-50%
Molecule: C[C@@H]1C[C@H]2[C@@H]3CCC4=CC(=O)C=C[C@]4(C)[C@@]3(F)[C@@H](O)C[C@]2(C)[C@@]1(O)C(=O)COP(=O)(O)O [DexP, dexamethasone sodium phosphate]
solubility in PBS ([9]; PBS): at least 25 mg/ml | solubility in 10 mM HEPES and 135 mM NaCl, pH 6.7 ([9]; pH 6.7): at least 50 mg/ml | solubility in water ([9]; water, product information): 50 mg/mL

Molecule: 9-biphenylacetyl-N-glycolylneuraminic acid-α2-6-galactose-β1-4-N-acetylglucosamine-β-ethylamine [6′-^BPANeuGc]
affinity for murine CD22, fold higher than natural ligand NeuGcα2-6Galβ1-4GlcNAc-β-ethylamine (murine CD22): 200 fold

Molecule: C=C1/C(=C\C=C2/CCC[C@]3(C)[C@@H]([C@H](C)/C=C/[C@@H](O)C4CC4)CC[C@@H]23)C[C@@H](O)C[C@@H]1O [calcipotriol]
applied dose absorbed systemically ([10]; applied to normal skin): 5% | applied dose absorbed systemically ([10]; ointment applied topically to psoriasis plaques): approximately 6% | rate of clearance, times higher than for 1,25-(OH)2D3 ([11]; compared to 1,25-(OH)2D3 / calcitriol): approximately 140 times | detectable in serum by HPLC up to ([11]; i.v. injection of 10 μg/kg in rats): up to 5 min | detectable in serum by HPLC up to ([11]; i.v. injection of 50 μg/kg in rats): up to 10 min | effect on calcium metabolism, times less than 1,25-(OH)2D3 (calcitriol) (calcium metabolism): 100-200 times | single s.c. dose up to which no death occurred [12]: ≤ 540 μg/kg body weight

Molecule: C=C1/C(=C\C=C2/CCC[C@]3(C)[C@@H]([C@H](C)CCCC(C)C)CC[C@@H]23)C[C@@H](O)C[C@@H]1O [alfacalcidiol]
patients with improvement of disease activity (rheumatoid arthritis; on methotrexate): 89% | patients going into remission (rheumatoid arthritis): 45%

Molecule: C[C@]12C=CC(=O)C=C1CC[C@@H]1[C@@H]2[C@@H](O)C[C@@]2(C)[C@H]1CC[C@]2(O)C(=O)CO [prednisolone]
glucocorticoid potency (in words) [1]: intermediate potency

Molecule: O=c1ccn([C@@H]2O[C@H](COP(=O)(O)OP(=O)(O)OP(=O)(O)O)[C@@H](O)[C@H]2O)c(=O)[nH]1 [UTP]
maximal migration of phagocytes (increase) (phagocytes): threefold increase | concentration effecting maximal migration of phagocytes (phagocytes): about 100 nM

Source: US20160338955A1, “ANTIGEN-SPECIFIC IMMUNOTHERAPY USING TOLERIZING LIPOSOMES” (PLS-Design GmbH, priority 2015, published 2016)
